In PubChem BioAssay AID1259411 (Chemical Carcinogenesis Research Information System (CCRIS), 2018) one finds carcinogen call data, which are given here for six compounds.

Active and inactive are the calls of the source. No rule for the calls is given here.

The test system of this series is rodent carcinogenicity bioassays, tumor incidence. Description: CCRIS carcinogenicity studies. The gist of the method:
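Archive of carcinogenicity, mutagenicity, tumor promotion and tumor inhibition results drawn from journals, NCI reports and other sources, expert-reviewed; covers 1985-2011 and is no longer updated.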

`O[C@@H]1[C@@H](O)[C@@H]2OC[C@@H](O2)[C@H]1O`: the carcinogen call (Species: MOUSE, Strain/Sex: CD-1/FEMALE, Route: DERMAL, Dose: 0, 20 UMOL/0.1 ML DMSO 2/WK FOR 5 WK FOLLOWED 1 WK LATER BY 0.1 ML ACETONE 2/WK FOR 47 WK (STUDY DURATION: 52 WK)) was “inactive; negative”.
Consider `COc1cc2c(c3oc4cccc(O)c4c(=O)c13)[C@@H]1C=CO[C@@H]1O2`, for which the carcinogen call (Species: MOUSE, Route: ORAL, Tumor Site: Type of Lesion: LUNG) is “active; positive”; the carcinogen call (Species: MOUSE, Strain/Sex: DBF1/FEMALE, Route: ORAL, Dose: 0, 30, 120 PPM IN DIET FOR 55 OR 51 WK, STUDY DURATION: 73 WK, Dose: 0, 30, 120 PPM IN DIET FOR 55 OR 51 WK, STUDY DURATION: 73 WK, Tumor Site: Type of Lesion: LIVER: HEMANGIOENDOTHELIOMA, ANGIOSARCOMA, LUNG: ADENOMA, INTEGUMENTARY SYSTEM (SUBCUTANEOUS TISSUE): ANGIOSARCOMA, Tumor Site: Type of Lesion: LIVER: HEMANGIOENDOTHELIOMA, ANGIOSARCOMA, LUNG: ADENOMA, INTEGUMENTARY SYSTEM (SUBCUTANEOUS TISSUE): ANGIOSARCOMA) was “active; positive”; the carcinogen call (Species: RAT, Route: DERMAL, Tumor Site: Type of Lesion: INTEGUMENTARY SYSTEM (SKIN)) was “active; positive”; the carcinogen call (Species: RAT, Route: ORAL, Tumor Site: Type of Lesion: LIVER) is “active; positive”; the carcinogen call (Species: RAT, Route: SUBCUTANEOUS, Tumor Site: Type of Lesion: INJECTION SITE) is “active; positive”.
On to `CC(C)CBr`, for which the carcinogen call (Species: MOUSE, Route: INTRAPERITONEAL, Tumor Site: Type of Lesion: LUNG) was “active; positive”.
On to `CNNC` (tested in a mixture with another compound), for which the carcinogen call (Species: RAT, Strain/Sex: CD-1/MALE, Route: INTRAPERITONEAL, Dose: 0, 10 MG/KG/WK FOR 4 WK (STUDY DURATION: 1 YEAR), Tumor Site: Type of Lesion: PANCREAS: ADENOCARCINOMA, COLON: ADENOCARCINOMA) was “active; positive”.
For `C=CF`, the carcinogen call is “active; positive” (Species: MOUSE, Strain/Sex: SWISS/FEMALE, Route: INHALATION, Dose: 0, 25, 250, 2500 PPM 6 HR/D 5 D/WK FOR 18 MO (STUDY DURATION: 18 MO), Dose: 0, 25, 250, 2500 PPM 6 HR/D 5 D/WK FOR 18 MO (STUDY DURATION: 18 MO), Tumor Site: Type of Lesion: LUNG: ADENOMA, LIVER: HEMANGIOSARCOMA, MAMMARY GLAND: TUMOR, Tumor Site: Type of Lesion: LUNG: ADENOMA, LIVER: HEMANGIOSARCOMA, MAMMARY GLAND: TUMOR); “active; positive” (Species: MOUSE, Strain/Sex: SWISS/MALE, Route: INHALATION, Dose: 0, 25, 250, 2500 PPM 6 HR/D 5 D/WK FOR 18 MO (STUDY DURATION: 18 MO), Dose: 0, 25, 250, 2500 PPM 6 HR/D 5 D/WK FOR 18 MO (STUDY DURATION: 18 MO), Tumor Site: Type of Lesion: LUNG: ADENOMA, LIVER: HEMANGIOSARCOMA); “active; positive” (Species: RAT, Strain/Sex: SPRAGUE-DAWLEY/FEMALE, Route: INHALATION, Dose: 0, 25, 250, 2500 PPM 6 HR/D 5 D/WK FOR 2 YR (STUDY DURATION: 2 YR), Dose: 0, 25, 250, 2500 PPM 6 HR/D 5 D/WK FOR 2 YR (STUDY DURATION: 2 YR), Tumor Site: Type of Lesion: LIVER: HEMANGIOSARCOMA, ADENOMA OR CARCINOMA, ZYMBAL'S GLAND: TUMOR); “active; positive” (Species: RAT, Strain/Sex: SPRAGUE-DAWLEY/MALE, Route: INHALATION, Dose: 0, 25, 250, 2500 PPM 6 HR/D 5 D/WK FOR 2 YR (STUDY DURATION: 2 YR), Dose: 0, 25, 250, 2500 PPM 6 HR/D 5 D/WK FOR 2 YR (STUDY DURATION: 2 YR), Tumor Site: Type of Lesion: LIVER: HEMANGIOSARCOMA, ZYMBAL'S GLAND: TUMOR).
Regarding `O=S1OCC2C(CO1)C1(Cl)C(Cl)=C(Cl)C2(Cl)C1(Cl)Cl` (configuration not stated), the carcinogen call is, setting by setting: (Species: MOUSE, Strain/Sex: B6C3F1/FEMALE, Route: ORAL, Dose: 0, 2.0, 3.9 PPM IN DIET, TWA, Dose: 0, 2.0, 3.9 PPM IN DIET, TWA) “inactive; negative”; (Species: MOUSE, Strain/Sex: NMRI/FEMALE, Route: ORAL, Dose: 0, 2, 6, 18 PPM IN THE DIET FOR 24 MO (STUDY DURATION: 24 MO), Dose: 0, 2, 6, 18 PPM IN THE DIET FOR 24 MO (STUDY DURATION: 24 MO)) “inactive; negative”; (Species: MOUSE, Strain/Sex: NMRI/MALE, Route: ORAL, Dose: 0, 2, 6, 18 PPM IN THE DIET FOR 24 MO (STUDY DURATION: 24 MO), Dose: 0, 2, 6, 18 PPM IN THE DIET FOR 24 MO (STUDY DURATION: 24 MO)) “inactive; negative”; (Species: Mouse, Strain/Sex: NMRI Hoe:NMRKf (SPF71)/Female (60/Group), Route: Oral, Dose: 0 (sesame oil), 2, 6, 18 ppm 97.1% endosulfan in diet for 24 mo, study duration 24 mo., Dose: 0 (sesame oil), 2, 6, 18 ppm 97.1% endosulfan in diet for 24 mo, study duration 24 mo.) “inactive; negative”; (Species: Mouse, Strain/Sex: NMRI Hoe:NMRKf (SPF71)/Male (60/Group), Route: Oral, Dose: 0 (sesame oil), 2, 6, 18 ppm 97.1% endosulfan in diet for 24 mo, study duration 24 mo., Dose: 0 (sesame oil), 2, 6, 18 ppm 97.1% endosulfan in diet for 24 mo, study duration 24 mo.) “inactive; negative”; (Species: RAT, Strain/Sex: OSBORNE-MENDEL/FEMALE, Route: ORAL, Dose: 0, 223, 445 PPM IN DIET, TWA, Dose: 0, 223, 445 PPM IN DIET, TWA) “inactive; negative”. Also, the carcinogen call was “inactive; negative” (Species: RAT, Strain/Sex: SPRAGUE-DAWLEY/FEMALE, Route: ORAL, Dose: 0, 3, 7.5, 15, 75 PPM IN THE DIET FOR 104 WK (STUDY DURATION: 104 WK), Dose: 0, 3, 7.5, 15, 75 PPM IN THE DIET FOR 104 WK (STUDY DURATION: 104 WK)); “inactive; negative” (Species: RAT, Strain/Sex: SPRAGUE-DAWLEY/MALE, Route: ORAL, Dose: 0, 3, 7.5, 15, 75 PPM IN THE DIET FOR 104 WK (STUDY DURATION: 104 WK), Dose: 0, 3, 7.5, 15, 75 PPM IN THE DIET FOR 104 WK (STUDY DURATION: 104 WK)); “inactive; negative” (Species: Rat, Strain/Sex: Crl:CD (SD) BR/Female (50/Group), Route: Oral, Dose: 0, 3.0, 7.5, 15.0, 75.0 ppm in corn oil in diet for 104 wk, study duration 104 wk, Dose: 0, 3.0, 7.5, 15.0, 75.0 ppm in corn oil in diet for 104 wk, study duration 104 wk); “inactive; negative” (Species: Rat, Strain/Sex: Crl:CD (SD) BR/Male (50/Group), Route: Oral, Dose: 0, 3.0, 7.5, 15.0, 75.0 ppm in corn oil in diet for 104 wk, study duration 104 wk, Dose: 0, 3.0, 7.5, 15.0, 75.0 ppm in corn oil in diet for 104 wk, study duration 104 wk).
